Measurements published in the supplement of paper PMC10307832.

Assays:
Assay in all cases: relative viability (nuclei count vs DMSO), 5 days (fraction); higher = more cells survive
MK-2206 + Phenformin = compound: NC1(c2ccc(-c3nc4ccn5c(=O)[nH]nc5c4cc3-c3ccccc3)cc2)CCC1 [MK-2206] + N=C(N)NC(=N)NCCc1ccccc1 [Phenformin] (partner 250 µM)
Procedure, shortened: (§1)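 One day after seeding in 1536-well plates, lung cancer cell lines were dosed by pin tool. Dosing was either single-drug or a fixed anchor-drug dose plus five library-drug doses (not always all listed) in √10 steps. After 5 days, nuclei were stained in one fix-and-stain step and counted on 4× images, and relative viability is the nuclei count of treated wells over that of vehicle wells, given as the median of duplicate plates.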

MK-2206 + Trametinib = compound: NC1(c2ccc(-c3nc4ccn5c(=O)[nH]nc5c4cc3-c3ccccc3)cc2)CCC1 [MK-2206] + CC(=O)Nc1cccc(-n2c(=O)n(C3CC3)c(=O)c3c(Nc4ccc(I)cc4F)n(C)c(=O)c(C)c32)c1 [Trametinib] (partner 0.02 µM)
Procedure, shortened: as §1

MK-2206 + Tozasertib = compound: NC1(c2ccc(-c3nc4ccn5c(=O)[nH]nc5c4cc3-c3ccccc3)cc2)CCC1 [MK-2206] + Cc1cc(Nc2cc(N3CCN(C)CC3)nc(Sc3ccc(NC(=O)C4CC4)cc3)n2)n[nH]1 [Tozasertib] (partner 0.1 µM)
Procedure, shortened: as §1

MK-2206 + Lapatinib = compound: NC1(c2ccc(-c3nc4ccn5c(=O)[nH]nc5c4cc3-c3ccccc3)cc2)CCC1 [MK-2206] + CS(=O)(=O)CCNCc1ccc(-c2ccc3ncnc(Nc4ccc(OCc5cccc(F)c5)c(Cl)c4)c3c2)o1 [Lapatinib] (partner 2 µM)
Procedure, shortened: as §1

Pictilisib + Decitabine = compound: CS(=O)(=O)N1CCN(Cc2cc3nc(-c4cccc5[nH]ncc45)nc(N4CCOCC4)c3s2)CC1 [Pictilisib] + Nc1ncn([C@H]2C[C@H](O)[C@@H](CO)O2)c(=O)n1 [Decitabine] (partner 2 µM)
Procedure, shortened: as §1

Cell Line	relative viability (MK-2206 + Phenformin; first compound 0.01 µM)	relative viability (MK-2206 + Phenformin; first compound 0.03162 µM)	relative viability (MK-2206 + Phenformin; first compound 0.3162 µM)	relative viability (MK-2206 + Phenformin; first compound 1 µM)	relative viability (MK-2206 + Trametinib; first compound 0.01 µM)	relative viability (MK-2206 + Trametinib; first compound 0.03162 µM)	relative viability (MK-2206 + Trametinib; first compound 0.3162 µM)	relative viability (MK-2206 + Trametinib; first compound 1 µM)	relative viability (MK-2206 + Tozasertib; first compound 0.01 µM)	relative viability (MK-2206 + Tozasertib; first compound 0.03162 µM)	relative viability (MK-2206 + Tozasertib; first compound 0.3162 µM)	relative viability (MK-2206 + Tozasertib; first compound 1 µM)	relative viability (MK-2206 + Lapatinib; first compound 0.01 µM)	relative viability (MK-2206 + Lapatinib; first compound 0.03162 µM)	relative viability (MK-2206 + Lapatinib; first compound 1 µM)	relative viability (Pictilisib + Decitabine; first compound 0.02 µM)	relative viability (Pictilisib + Decitabine; first compound 0.06325 µM)	relative viability (Pictilisib + Decitabine; first compound 0.6325 µM)	relative viability (Pictilisib + Decitabine; first compound 2 µM)	relative viability (MK-2206 + Lapatinib; first compound 0.3162 µM)
EPLC-272H	0.323	0.285	0.29	0.336	0.266	0.307	0.298	0.312	0.292	0.378	0.344	0.246	1.06	0.916	1.33	0.428	0.371	0.319	0.171	–
LCLC-103H	0.304	0.321	0.351	0.314	0.691	0.635	0.666	0.659	0.495	0.609	0.516	0.477	–	–	–	0.705	0.77	0.55	0.617	–
NCI-H2342	0.657	0.594	0.542	0.417	0.909	0.8	0.664	0.682	0.608	0.535	0.452	0.402	–	–	–	0.736	0.672	0.688	0.445	–
NCI-H522	0.605	0.681	0.627	0.613	0.817	0.746	0.635	0.672	0.593	0.518	0.62	0.513	–	–	–	0.66	0.609	0.657	0.607	–
EBC-1	–	–	–	–	–	–	–	–	–	–	–	–	0.217	0.2	0.224	–	–	–	–	0.174
ChaGo-K-1	0.524	0.488	0.46	0.497	0.894	0.867	0.881	0.904	0.236	0.268	0.2	0.228	–	–	–	0.526	0.51	0.491	0.495	–
IA-LM	–	–	–	–	–	–	–	–	–	–	–	–	–	0.765	0.438	–	–	–	–	0.695
NCI-H1703	–	–	–	–	–	–	–	–	–	–	–	–	1.24	0.959	0.571	–	–	–	–	0.71
A549	0.173	0.152	0.203	0.124	–	–	–	–	–	–	–	–	0.874	0.988	0.81	0.256	0.289	0.259	0.22	0.932
NCI-H1623	0.555	0.592	0.574	0.605	–	–	–	–	0.458	0.394	0.456	0.44	–	–	–	–	–	–	–	–
NCI-H1563	0.625	0.601	0.606	0.616	–	–	–	–	–	–	–	–	0.843	0.911	0.711	–	–	–	–	0.783
NCI-H1792	0.329	0.351	0.161	0.184	0.363	0.395	0.365	0.296	–	–	–	–	0.84	0.983	0.92	0.509	0.592	0.491	0.22	0.909
ABC-1	0.265	0.235	0.196	0.232	–	–	–	–	0.145	0.148	0.167	0.163	1.32	1.29	1.13	1.16	1.19	1.07	0.703	1.08
